Here are results for 9 molecules from ChEMBL document CHEMBL4177646, “Discovery of novel nitroimidazole enols as Pseudomonas aeruginosa DNA cleavage agents” (Bioorg Med Chem, 2017).

Structures are written as SMILES. Values after ≈ are worked out from the molar mass of the structure shown.

The MIC is the smallest concentration in the dilution series that meets the test's criterion for growth inhibition. A low value points to greater potency.

Holding throughout (type): functional
Experiment [1] has as its system Staphylococcus aureus. Briefly: Antibacterial activity against methicillin-resistant Staphylococcus aureus N315 after 24 hrs by micro broth dilution method. As to conditions: N315, 24 h. For orientation: Broth dilution looks for growth in wells or tubes with falling amounts of substance.
Experiment [2] concerns Staphylococcus aureus. Briefly: Antibacterial activity against drug-resistant Staphylococcus aureus after 24 hrs by micro broth dilution method.
The subject of experiment [3] is Staphylococcus aureus. Nature of the experiment: Antibacterial activity against Staphylococcus aureus ATCC 25923 after 24 hrs by micro broth dilution method. As to conditions: ATCC 25923, 24 h.
Experiment [4] concerns Staphylococcus aureus. Briefly: Antibacterial activity against Staphylococcus aureus ATCC 29213 after 24 hrs by micro broth dilution method. As to conditions: ATCC 29213, 24 h.
The subject of experiment [5] is Escherichia coli. Nature of the experiment: Antibacterial activity against drug-resistant Escherichia coli after 24 hrs by micro broth dilution method.
Experiment [6] deals with Escherichia coli. Briefly: Antibacterial activity against Escherichia coli ATCC 25922 after 24 hrs by micro broth dilution method. As to conditions: ATCC 25922, 24 h.
Experiment [7] relates to Pseudomonas aeruginosa. Nature of the experiment: Antibacterial activity against drug-resistant Pseudomonas aeruginosa after 24 hrs by micro broth dilution method.
In experiment [8] the test system is Pseudomonas aeruginosa. Nature of the experiment: Antibacterial activity against Pseudomonas aeruginosa ATCC 27853 after 24 hrs by micro broth dilution method. As to conditions: ATCC 27853, 24 h.
In experiment [9] the test system is Candida albicans. Nature of the experiment: Antifungal activity against drug-resistant Candida albicans after 24 hrs by micro broth dilution method.
Experiment [10] has as its system Candida albicans. Briefly: Antifungal activity against Candida albicans ATCC 90023 after 24 hrs by micro broth dilution method. As to conditions: ATCC 90023, 24 h.
A further experiment concerns Candida tropicalis. Nature of the experiment: Antifungal activity against Candida tropicalis after 24 hrs by micro broth dilution method.

For `CC(=O)/C(=C\c1ccccc1Cl)n1c([N+](=O)[O-])cnc1C`, the MIC in the experiment on Staphylococcus aureus [1] came to 1640 µM (≈ 501 µg/mL); against Staphylococcus aureus [2], 1640 µM (≈ 501 µg/mL); in the experiment with Staphylococcus aureus [3], 820 µM (≈ 251 µg/mL); against Staphylococcus aureus [4], 820 µM (≈ 251 µg/mL); against Escherichia coli [5], 1640 µM (≈ 501 µg/mL); in the experiment with Escherichia coli [6], 410 µM (≈ 125 µg/mL). For the same molecule, the MIC against Pseudomonas aeruginosa [7] turned out to be 830 µM (≈ 254 µg/mL); with Pseudomonas aeruginosa [8], 830 µM (≈ 254 µg/mL); with Candida albicans [9] it was 512 µg/mL (≈ 1670 µM); against Candida albicans [10], 32 µg/mL (≈ 105 µM); with Candida tropicalis, 64 µg/mL (≈ 209 µM).

With `CC(=O)/C(=C\c1ccc(Cl)cc1)n1c([N+](=O)[O-])cnc1C`, the MIC in the experiment on Staphylococcus aureus [1] was found to be 1640 µM (≈ 501 µg/mL); against Staphylococcus aureus [2], 210 µM (≈ 64.2 µg/mL); with Staphylococcus aureus [3], 1640 µM (≈ 501 µg/mL); against Staphylococcus aureus [4] it was 1640 µM (≈ 501 µg/mL); against Escherichia coli [5], 1640 µM (≈ 501 µg/mL); against Escherichia coli [6], 410 µM (≈ 125 µg/mL). In addition, the MIC against Pseudomonas aeruginosa [7] came to 1640 µM (≈ 501 µg/mL); with Pseudomonas aeruginosa [8], 820 µM (≈ 251 µg/mL); with Candida albicans [9], 512 µg/mL (≈ 1670 µM); against Candida albicans [10], 128 µg/mL (≈ 419 µM); against Candida tropicalis it was 128 µg/mL (≈ 419 µM).

As for `Cc1ncc([N+](=O)[O-])n1/C(=C/c1ccccc1Cl)C(C)O` (stereo not given), the MIC in the experiment with Staphylococcus aureus [1] came to 1670 µM (≈ 514 µg/mL); in the experiment with Staphylococcus aureus [2], 1670 µM (≈ 514 µg/mL); with Staphylococcus aureus [3] it was 1670 µM (≈ 514 µg/mL); against Staphylococcus aureus [4], 1670 µM (≈ 514 µg/mL); with Escherichia coli [5] it was 1670 µM (≈ 514 µg/mL); against Escherichia coli [6], 210 µM (≈ 64.6 µg/mL). Besides, the MIC in the experiment with Pseudomonas aeruginosa [7] worked out at 1670 µM (≈ 514 µg/mL); against Pseudomonas aeruginosa [8], 830 µM (≈ 255 µg/mL); in the experiment with Candida albicans [9], 512 µg/mL (≈ 1660 µM); against Candida albicans [10], 32 µg/mL (≈ 104 µM); with Candida tropicalis it was 512 µg/mL (≈ 1660 µM).

For `Cc1ncc([N+](=O)[O-])n1/C(=C/c1ccc(Cl)cc1)C(C)O` (stereo not given), the MIC is 1670 µM (≈ 514 µg/mL) in the experiment on Staphylococcus aureus [1]; 830 µM (≈ 255 µg/mL) in the experiment with Staphylococcus aureus [2]; 1670 µM (≈ 514 µg/mL) against Staphylococcus aureus [3]; 830 µM (≈ 255 µg/mL) with Staphylococcus aureus [4]; 1670 µM (≈ 514 µg/mL) with Escherichia coli [5]; 1670 µM (≈ 514 µg/mL) in the experiment with Escherichia coli [6]. The MIC in the experiment on Pseudomonas aeruginosa [7] worked out at 1670 µM (≈ 514 µg/mL); against Pseudomonas aeruginosa [8], 410 µM (≈ 126 µg/mL); against Candida albicans [9] it was 512 µg/mL (≈ 1660 µM); with Candida albicans [10], 16 µg/mL (≈ 52 µM); against Candida tropicalis, 256 µg/mL (≈ 832 µM).

For `Cc1ncc([N+](=O)[O-])n1CCO` [METRONIDAZOLE], the MIC against Staphylococcus aureus [1], in the experiment on Staphylococcus aureus [2], against Staphylococcus aureus [3], in the experiment on Staphylococcus aureus [4], in the experiment with Escherichia coli [5] and in the experiment on Escherichia coli [6] was 2970 µM (≈ 508 µg/mL) throughout. Further, the MIC in the experiment on Pseudomonas aeruginosa [7] and in the experiment with Pseudomonas aeruginosa [8] was 2970 µM (≈ 508 µg/mL) each time.

In the case of `CCn1cc(C(=O)O)c(=O)c2cc(F)c(N3CCNCC3)cc21` [NORFLOXACIN], the MIC against Staphylococcus aureus [1] is 1600 µM (≈ 511 µg/mL); in the experiment with Staphylococcus aureus [2], 200 µM (≈ 63.9 µg/mL); in the experiment with Staphylococcus aureus [3], 100 µM (≈ 31.9 µg/mL); in the experiment with Staphylococcus aureus [4] it was 25 µM (≈ 7.98 µg/mL); against Escherichia coli [5] it was 1600 µM (≈ 511 µg/mL); with Escherichia coli [6], 50 µM (≈ 16 µg/mL). In addition, the MIC with Pseudomonas aeruginosa [7] and with Pseudomonas aeruginosa [8] was 1600 µM (≈ 511 µg/mL) in each case.

For `Cc1ncc([N+](=O)[O-])n1/C(=C/c1ccc(C#N)cc1)C(C)O` (stereo not given), the MIC in the experiment on Staphylococcus aureus [1] worked out at 1710 µM (≈ 510 µg/mL); against Staphylococcus aureus [2] it was 1710 µM (≈ 510 µg/mL); against Staphylococcus aureus [3], 1710 µM (≈ 510 µg/mL); in the experiment with Staphylococcus aureus [4] it was 1710 µM (≈ 510 µg/mL); in the experiment with Escherichia coli [5] it was 1710 µM (≈ 510 µg/mL); in the experiment on Escherichia coli [6], 860 µM (≈ 257 µg/mL). Further, the MIC was 1710 µM (≈ 510 µg/mL) in the experiment on Pseudomonas aeruginosa [7]; 860 µM (≈ 257 µg/mL) in the experiment with Pseudomonas aeruginosa [8]; 512 µg/mL (≈ 1720 µM) in the experiment with Candida albicans [9]; 64 µg/mL (≈ 215 µM) with Candida albicans [10]; 512 µg/mL (≈ 1720 µM) in the experiment with Candida tropicalis.

`OC(Cn1cncn1)(Cn1cncn1)c1ccc(F)cc1F` [FLUCONAZOLE]: the figures for the MIC in the experiment with Candida albicans [9], in the experiment on Candida albicans [10] and with Candida tropicalis were 8 µg/mL (≈ 26.1 µM), 8 µg/mL (≈ 26.1 µM) and 256 µg/mL (≈ 836 µM), respectively.

On to `CC(=O)/C(=C\c1ccc(Cl)cc1Cl)n1c([N+](=O)[O-])cnc1C`, for which the MIC against Staphylococcus aureus [1] was determined as 1650 µM (≈ 561 µg/mL); with Staphylococcus aureus [2], 1650 µM (≈ 561 µg/mL); in the experiment on Staphylococcus aureus [3], 830 µM (≈ 282 µg/mL); in the experiment on Staphylococcus aureus [4], 1650 µM (≈ 561 µg/mL); against Escherichia coli [5] it was 1650 µM (≈ 561 µg/mL); against Escherichia coli [6] it was 1650 µM (≈ 561 µg/mL). Also, the MIC with Pseudomonas aeruginosa [7] was found to be 1650 µM (≈ 561 µg/mL); against Pseudomonas aeruginosa [8], 830 µM (≈ 282 µg/mL); in the experiment with Candida albicans [9], 512 µg/mL (≈ 1510 µM); against Candida albicans [10], 128 µg/mL (≈ 376 µM); with Candida tropicalis it was 512 µg/mL (≈ 1510 µM).
